Experimental data as given in ChEMBL document CHEMBL3734723, “Synthesis and anticancer activity of 6-heteroarylcoumarins” (2015).

Key:
Assay type in all cases: functional
[1] = Growth inhibition of human OVCAR5 cells incubated for 48 hrs by sulforhodamine B assay; conditions: OVCAR-5, 48 h; for CC50: read-out: LC50 (the source's name)
[2] = Cytotoxicity against human OVCAR4 cells assessed as cell growth at 10 uM incubated for 48 hrs by sulforhodamine B assay; conditions: OVCAR-4, 48 h, read-out: Activity
[3] = test system: NCI-H23; experiment: Cytotoxicity against human NCI-H23 cells assessed as cell growth at 10 uM incubated for 48 hrs by sulforhodamine B assay; conditions: NCI-H23, 48 h, read-out: Activity
[4] = test system: KM12; experiment: Cytotoxicity against human KM12 cells assessed as cell growth at 10 uM incubated for 48 hrs by sulforhodamine B assay; conditions: KM12, 48 h, read-out: Activity
[5] = Growth inhibition of human UACC257 cells incubated for 48 hrs by sulforhodamine B assay; conditions: UACC-257, 48 h; for CC50: read-out: LC50 (the source's name)
[6] = test system: SK-MEL-5; experiment: Growth inhibition of human SK-MEL-5 cells incubated for 48 hrs by sulforhodamine B assay; conditions: SK-MEL-5, 48 h; for CC50: read-out: LC50 (the source's name)
[7] = Cytotoxicity against human HL-60(TB) cells assessed as cell growth at 10 uM incubated for 48 hrs by sulforhodamine B assay; conditions: HL-60, 48 h, read-out: Activity
[8] = Growth inhibition of human non-small cell lung cancer cells after 48 hrs by sulforhodamine B assay; conditions: Cancer cell lines; for CC50: read-out: LC50 (the source's name)
[9] = test system: MDA-MB-231; experiment: Growth inhibition of human MDA-MB-231 cells incubated for 48 hrs by sulforhodamine B assay; conditions: MDA-MB-231, 48 h; for CC50: read-out: LC50 (the source's name)
[10] = Growth inhibition of human DU145 cells incubated for 48 hrs by sulforhodamine B assay; conditions: DU-145, 48 h; for CC50: read-out: LC50 (the source's name)
[11] = Growth inhibition of human SNB19 cells incubated for 48 hrs by sulforhodamine B assay; conditions: SNB-19, 48 h; for CC50: read-out: LC50 (the source's name)
[12] = test system: ACHN; experiment: Cytotoxicity against human ACHN cells assessed as cell growth at 10 uM incubated for 48 hrs by sulforhodamine B assay; conditions: read-out: Activity
[13] = Cytotoxicity against human SF295 cells assessed as cell growth at 10 uM incubated for 48 hrs by sulforhodamine B assay; conditions: SF-295, 48 h, read-out: Activity
[14] = Growth inhibition of human leukemia cells after 48 hrs by sulforhodamine B assay; conditions: Leukemia cell; for CC50: read-out: LC50 (the source's name)
[15] = Growth inhibition of human breast cancer cells after 48 hrs by sulforhodamine B assay; conditions: Cancer cell lines; for CC50: read-out: LC50 (the source's name)
[16] = test system: A498; experiment: Cytotoxicity against human A498 cells assessed as cell growth at 10 uM incubated for 48 hrs by sulforhodamine B assay; conditions: A498, 48 h, read-out: Activity
[17] = test system: K562; experiment: Cytotoxicity against human K562 cells assessed as cell growth at 10 uM incubated for 48 hrs by sulforhodamine B assay; conditions: K562, 48 h, read-out: Activity
[18] = Cytotoxicity against human HCT116 cells assessed as cell growth at 10 uM incubated for 48 hrs by sulforhodamine B assay; conditions: HCT-116, 48 h, read-out: Activity
[19] = test system: CCRF-CEM; experiment: Growth inhibition of human CCRF-CEM cells incubated for 48 hrs by sulforhodamine B assay; conditions: for CC50: read-out: LC50 (the source's name)
[20] = Growth inhibition of human OVCAR3 cells incubated for 48 hrs by sulforhodamine B assay; conditions: OVCAR-3, 48 h; for CC50: read-out: LC50 (the source's name)
[21] = Cytotoxicity against human RXF393 cells assessed as cell growth at 10 uM incubated for 48 hrs by sulforhodamine B assay; conditions: RXF 393, 48 h, read-out: Activity
[22] = test system: SN12C; experiment: Growth inhibition of human SN12C cells incubated for 48 hrs by sulforhodamine B assay; conditions: for CC50: read-out: LC50 (the source's name)
[23] = test system: NCI-H226; experiment: Growth inhibition of human NCI-H226 cells incubated for 48 hrs by sulforhodamine B assay; conditions: NCI-H226, 48 h; for CC50: read-out: LC50 (the source's name)
[24] = Growth inhibition of human UACC62 cells incubated for 48 hrs by sulforhodamine B assay; conditions: UACC-62, 48 h; for CC50: read-out: LC50 (the source's name)
[25] = Growth inhibition of human HOP92 cells incubated for 48 hrs by sulforhodamine B assay; conditions: HOP-92, 48 h; for CC50: read-out: LC50 (the source's name)
[26] = test system: HT-29; experiment: Growth inhibition of human HT-29 cells incubated for 48 hrs by sulforhodamine B assay; conditions: HT-29, 48 h; for CC50: read-out: LC50 (the source's name)
[27] = Growth inhibition of human SNB75 cells incubated for 48 hrs by sulforhodamine B assay; conditions: SNB-75, 48 h; for CC50: read-out: LC50 (the source's name)
[28] = Cytotoxicity against human SW620 cells assessed as cell growth at 10 uM incubated for 48 hrs by sulforhodamine B assay; conditions: SW-620, 48 h, read-out: Activity
[29] = Growth inhibition of human CNS cancer cells after 48 hrs by sulforhodamine B assay; conditions: Cancer cell lines; for CC50: read-out: LC50 (the source's name)
[30] = Cytotoxicity against human PC3 cells assessed as cell growth at 10 uM incubated for 48 hrs by sulforhodamine B assay; conditions: PC-3, 48 h, read-out: Activity
[31] = Cytotoxicity against human MOLT4 cells assessed as cell growth at 10 uM incubated for 48 hrs by sulforhodamine B assay; conditions: MOLT-4, 48 h, read-out: Activity
[32] = test system: SN12C; experiment: Cytotoxicity against human SN12C cells assessed as cell growth at 10 uM incubated for 48 hrs by sulforhodamine B assay; conditions: read-out: Activity
[33] = test system: T47D; experiment: Cytotoxicity against human T47D cells assessed as cell growth at 10 uM incubated for 48 hrs by sulforhodamine B assay; conditions: read-out: Activity
[34] = test system: U-251; experiment: Cytotoxicity against human U251 cells assessed as cell growth at 10 uM incubated for 48 hrs by sulforhodamine B assay; conditions: U-251, 48 h, read-out: Activity
[35] = Growth inhibition of human IGROV1 cells incubated for 48 hrs by sulforhodamine B assay; conditions: IGROV-1, 48 h; for CC50: read-out: LC50 (the source's name)
[36] = test system: MCF7; experiment: Cytotoxicity against human MCF7 cells assessed as cell growth at 10 uM incubated for 48 hrs by sulforhodamine B assay; conditions: MCF7, 48 h, read-out: Activity

## Cc1cc(=O)oc2c(C)c(O)c(-c3ccnc(N)n3)cc12
[1]
  GI50: > 100 µM
  TGI: > 100 µM
  CC50: > 100 µM
[2]
  growth at 10 µM: 68.6%
[3]
  growth at 10 µM: 68.3%
[4]
  growth at 10 µM: 66.1%
[5]
  GI50: > 100 µM
  TGI: > 100 µM
  CC50: > 100 µM
[6]
  GI50: 3.56 µM
  TGI: > 100 µM
  CC50: > 100 µM
[7]
  growth at 10 µM: -0.65%
[8]
  GI50: 24.4 µM
  TGI: > 100 µM
  CC50: > 100 µM
[9]
  GI50: > 100 µM
  TGI: > 100 µM
  CC50: > 100 µM
[10]
  GI50: > 100 µM
  TGI: > 100 µM
  CC50: > 100 µM
[11]
  GI50: 35.8 µM
  TGI: > 100 µM
  CC50: > 100 µM
[12]
  growth at 10 µM: 26.9%
[13]
  growth at 10 µM: 28.7%
[14]
  GI50: 31.9 µM
  TGI: > 100 µM
  CC50: > 100 µM
[15]
  GI50: 32 µM
  TGI: > 100 µM
  CC50: > 100 µM
[16]
  growth at 10 µM: 42.9%
[17]
  growth at 10 µM: 46.5%
[18]
  growth at 10 µM: 15.8%
[19]
  GI50: 8.7 µM
  TGI: > 100 µM
  CC50: > 100 µM
[20]
  GI50: 37.7 µM
  TGI: > 100 µM
  CC50: > 100 µM
[21]
  growth at 10 µM: 55.7%
[22]
  GI50: 29.2 µM
  TGI: > 100 µM
  CC50: > 100 µM
[23]
  GI50: 9.84 µM
  TGI: > 100 µM
  CC50: > 100 µM
[24]
  GI50: 17.2 µM
  TGI: > 100 µM
  CC50: > 100 µM
[25]
  GI50: 19.4 µM
  TGI: 93.9 µM
  CC50: > 100 µM
[26]
  GI50: 6.72 µM
  TGI: > 100 µM
  CC50: > 100 µM
[27]
  GI50: 5.08 µM
  TGI: 92.9 µM
  CC50: > 100 µM
[28]
  growth at 10 µM: 38.4%
[29]
  GI50: 13.1 µM
  TGI: > 100 µM
  CC50: > 100 µM
[30]
  growth at 10 µM: 60.3%
[31]
  growth at 10 µM: -44.7%
[32]
  growth at 10 µM: 50.8%
[33]
  growth at 10 µM: 53.7%
[34]
  growth at 10 µM: 56.3%
[35]
  GI50: 15.8 µM
  TGI: > 100 µM
  CC50: > 100 µM
[36]
  growth at 10 µM: 22.1%

## Cc1cc(=O)oc2c(C)c(O)c(-c3cc4ccc(F)cc4[nH]3)cc12
[1]
  GI50: 3.34 µM
  TGI: 16.7 µM
  CC50: 49.7 µM
[2]
  growth at 10 µM: 33.7%
[3]
  growth at 10 µM: 10.2%
[4]
  growth at 10 µM: 33.2%
[5]
  GI50: 1.82 µM
  TGI: 3.78 µM
  CC50: 7.87 µM
[6]
  GI50: 1.65 µM
  TGI: 4.46 µM
  CC50: 14.5 µM
[7]
  growth at 10 µM: 27.9%
[8]
  GI50: 2.75 µM
  TGI: 12.4 µM
  CC50: 64.1 µM
[9]
  GI50: 2.49 µM
  TGI: 10.2 µM
  CC50: > 100 µM
[10]
  GI50: 3.53 µM
  TGI: 18.4 µM
  CC50: > 100 µM
[11]
  CC50: > 100 µM
[12]
  growth at 10 µM: 27.6%
[13]
  growth at 10 µM: 33%
[14]
  GI50: 3.08 µM
  TGI: 19.8 µM
  CC50: > 100 µM
[15]
  GI50: 2.67 µM
  TGI: 14.2 µM
  CC50: 89.3 µM
[16]
  growth at 10 µM: 52.5%
[17]
  growth at 10 µM: 26.7%
[18]
  growth at 10 µM: 22.9%
[19]
  GI50: 4.42 µM
  TGI: 47.7 µM
  CC50: > 100 µM
[20]
  GI50: 2.28 µM
  TGI: 7.02 µM
  CC50: 37.5 µM
[21]
  growth at 10 µM: 64.4%
[22]
  GI50: 3.32 µM
  TGI: 13 µM
  CC50: 48 µM
[23]
  GI50: 3.34 µM
  TGI: 22.1 µM
  CC50: > 100 µM
[24]
  GI50: 2.19 µM
  TGI: 13.2 µM
  CC50: 39.4 µM
[25]
  GI50: 0.95 µM
  TGI: 4.17 µM
  CC50: 29.9 µM
[26]
  GI50: 10.2 µM
  TGI: 23 µM
  CC50: 52 µM
[27]
  GI50: 5.7 µM
  TGI: 24 µM
  CC50: 78.3 µM
[28]
  growth at 10 µM: 58.6%
[29]
  GI50: 3.89 µM
  TGI: 17.5 µM
  CC50: 72.9 µM
[30]
  growth at 10 µM: 27.5%
[31]
  growth at 10 µM: 36.5%
[32]
  growth at 10 µM: 35.1%
[33]
  growth at 10 µM: 27.2%
[34]
  growth at 10 µM: 27.9%
[35]
  GI50: 2.3 µM
  TGI: 13.7 µM
  CC50: 62.8 µM
[36]
  growth at 10 µM: 28.3%
